Tests used:
GCGR [1] = molecular target: T1, GCGR (Homo sapiens, UniProt P47871); assay: cAMP accumulation assay, HEK-293 cells expressing GCGR with vector control; type: cell-based; set-up: expressed in transfected cells; host or cells: HEK-293 (293T)
Protocol: (§1) Data were analyzed using Prism version 6.0e (GraphPad Software, San Diego, CA). EC50 and Emax values were obtained through fitting of a three-parameter logistic equation. Relative efficacy (log τ) and equilibrium dissociation constants (log KA) were generated through use of an operational model for partial agonism ([23]). […] Statistical differences were analyzed before data were normalized, using a Student's test or one-way analysis of variance (ANOVA) with Bonferroni's or Dunnett's multiple comparisons as appropriate, and p < 0.05 was considered significant.

GCGR with RAMP2 [2] = molecular target: T2, GCGR with RAMP2 (Homo sapiens, UniProt O60895+P47871); assay: Yeast growth reporter assay, GPA1/Gαi chimera strain expressing GCGR and RAMP2; type: cell-based; details: Table 5, yeast GPA1/Gαi
T2 construct: expressed in transfected cells; host or cells: HEK-293 (293T)
T2 sequence (P47871 26-477): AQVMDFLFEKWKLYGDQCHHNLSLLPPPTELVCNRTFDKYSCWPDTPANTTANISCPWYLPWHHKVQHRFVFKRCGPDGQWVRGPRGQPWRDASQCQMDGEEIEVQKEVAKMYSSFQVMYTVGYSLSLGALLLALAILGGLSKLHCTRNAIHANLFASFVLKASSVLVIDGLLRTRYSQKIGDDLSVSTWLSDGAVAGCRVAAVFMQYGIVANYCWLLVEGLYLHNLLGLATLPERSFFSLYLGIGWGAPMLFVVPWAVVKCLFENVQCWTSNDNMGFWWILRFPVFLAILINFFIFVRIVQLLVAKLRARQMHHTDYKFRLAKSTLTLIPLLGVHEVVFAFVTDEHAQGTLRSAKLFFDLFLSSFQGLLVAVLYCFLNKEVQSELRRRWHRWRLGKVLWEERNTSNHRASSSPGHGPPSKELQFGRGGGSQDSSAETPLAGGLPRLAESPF
T2 sequence (O60895 43-175 partner): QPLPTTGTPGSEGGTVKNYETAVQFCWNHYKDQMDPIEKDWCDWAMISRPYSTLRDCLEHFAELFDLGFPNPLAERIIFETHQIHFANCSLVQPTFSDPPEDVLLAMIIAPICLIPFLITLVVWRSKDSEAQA
Protocol: (§2) General yeast procedures were performed as described previously ([17], [18]). […] Mammalian GPCRs and RAMPs were introduced to the yeast strains under the control of the GAPDH promoter using plasmids containing either ura3 (p426-GPD) or leu2 (p425-GPD). Plasmids were transformed in a 1:1 ratio to enable equal expression levels of both the RAMP and receptors. Transformation was achieved using the lithium acetate/single-stranded DNA/polyethylene glycol method as described previously ([20]). Positive transformants were selected and maintained on medium lacking uracil and leucine. Receptor signaling was measured using the yeast growth assay ([21]) adapted as described previously ([17]). Initially, cell growth was performed in SD−URA−LEU medium at 30 °C to select for only those cells expressing both plasmids. Cells were then cultured to remove basal activity in SD−URA−LEU−HIS medium overnight at 30 °C and assayed using fluorescein-di-β-D-glucopyranoside-supplemented medium in the presence of different concentrations of ligand (0.01 nM to 100 mM). Fluorescence was measured on a TECAN Infinite M200 microplate reader (TECAN Ultra Evolution, Reading, UK).
as §1

GCGR with RAMP2 [3] = molecular target: T2, GCGR with RAMP2; assay: cAMP accumulation assay, HEK-293 cells co-expressing GCGR and RAMP2; type: cell-based; details: Table 3, cAMP
Protocol: as §1

GCGR with RAMP2 [4] = molecular target: T2, GCGR with RAMP2; assay: Whole cell competition binding with [125I]glucagon, GCGR with RAMP2; details: whole cells, [125I]glucagon 0.1 nM, 16 h at 4 °C
GCGR [5] = molecular target: T1, GCGR; assay: Yeast growth reporter assay, GPA1/Gαi chimera strain expressing GCGR with vector; type: cell-based; set-up: expressed in transfected cells; host or cells: HEK-293 (293T)
Protocol: as §2, with “Cells were then cultured to remove basal activity in SD−URA−LEU−HIS medium overnight at 30 °C and assayed using fluorescein-di-β-D-glucopyranoside-supplemented medium in the presence of different concentrations of ligand (0.01 nM to 100 mM).” left out
(§3) Data were analyzed using Prism version 6.0e (GraphPad Software, San Diego, CA). […] Statistical differences were analyzed before data were normalized, using a Student's test or one-way analysis of variance (ANOVA) with Bonferroni's or Dunnett's multiple comparisons as appropriate, and p < 0.05 was considered significant.

GCGR [6] = molecular target: T1, GCGR; assay: Yeast growth reporter assay, GPA1/Gαs chimera strain expressing GCGR with vector; type: cell-based; set-up: expressed in transfected cells; host or cells: HEK-293 (293T)
Protocol: as §2, with “Cells were then cultured to remove basal activity in SD−URA−LEU−HIS medium overnight at 30 °C and assayed using fluorescein-di-β-D-glucopyranoside-supplemented medium in the presence of different concentrations of ligand (0.01 nM to 100 mM).” left out
as §3

GCGR with RAMP2 [7] = molecular target: T2, GCGR with RAMP2; assay: Yeast growth reporter assay, GPA1/Gαs chimera strain expressing GCGR and RAMP2; type: cell-based; details: Table 4, yeast GPA1/Gαs
Protocol: as §2, §1

GCGR [8] = molecular target: T1, GCGR; assay: Whole cell competition binding with [125I]glucagon, GCGR without RAMP2; set-up: expressed in transfected cells; details: no RAMP2
Protocol: Cells were seeded into 6-well plates and grown to 80% confluence before transfection with 1.5 μg of plasmid DNA and incubated for a further 24 h. Medium was then replaced with fresh DMEM, and cells were transferred onto a 96-well plate coated with poly-D-lysine and incubated for 24 h to achieve confluence prior to assay. […] For the assay, cells were washed in assay buffer, 0.1 nM of radioligand and various concentrations of the peptides were added, and the plate was incubated for 16 h at 4 °C. Following washing with ice-cold assay buffer, 100 μl of NaOH (0.1 M) was added to each well, and the plate was incubated for 5 min on ice. Cells were removed, and the plate was washed with 100 μl of HCl (0.1 M). Radioactivity was determined in 2 ml of Safefluor scintillant (PerkinElmer Life Sciences) using a liquid scintillation counter with a count time of 3 min/sample. Values were corrected for nonspecific binding as determined by the amount of radioligand detected bound to cells not expressing GCGR.

[9] = GCGR + RAMP2, mean ± S.E., five repeats
[10] = RAMP2, operational model relative to glucagon
[11] = RAMP2, percentage of glucagon response without RAMP co-expression

T1 sequence (P47871 26-477): as the sequence (P47871 26-477) above

## des-His^1-[Glu^9]glucagon(1–29) amide
GCGR [1]; cAMP, HEK-293 cells with GCGR
  effect of GCGR antagonist on GLP-1 and liraglutide signaling through the GCGR: inhibited

## CCCCCCCCCCCCCCCC(=O)N[C@@H](CCC(=O)NCCCC[C@H](NC(=O)[C@H](C)NC(=O)[C@H](C)NC(=O)[C@H](CCC(N)=O)NC(=O)CNC(=O)[C@H](CCC(=O)O)NC(=O)[C@H](CC(C)C)NC(=O)[C@H](Cc1ccc(O)cc1)NC(=O)[C@H](CO)NC(=O)[C@H](CO)NC(=O)[C@@H](NC(=O)[C@H](CC(=O)O)NC(=O)[C@H](CO)NC(=O)[C@@H](NC(=O)[C@H](Cc1ccccc1)NC(=O)[C@@H](NC(=O)CNC(=O)[C@H](CCC(=O)O)NC(=O)[C@H](C)NC(=O)[C@@H](N)Cc1c[nH]cn1)[C@@H](C)O)[C@@H](C)O)C(C)C)C(=O)N[C@@H](CCC(=O)O)C(=O)N[C@@H](Cc1ccccc1)C(=O)N[C@H](C(=O)N[C@@H](C)C(=O)N[C@@H](Cc1c[nH]c2ccccc12)C(=O)N[C@@H](CC(C)C)C(=O)N[C@H](C(=O)N[C@@H](CCCNC(=N)N)C(=O)NCC(=O)N[C@@H](CCCNC(=N)N)C(=O)NCC(=O)O)C(C)C)[C@@H](C)CC)C(=O)O [Liraglutide]
GCGR with RAMP2 [2]; [9]
  pEC50: N.R
GCGR with RAMP2 [2]; [10]
  log τ: N.R
  pKA: N.R
GCGR with RAMP2 [2]; [11]
  Emax: N.R
GCGR with RAMP2 [3]; GCGR + RAMP2, coupling efficiency, operational model relative to glucagon
  log τ: N.R
GCGR with RAMP2 [3]; GCGR + RAMP2, operational model for partial agonism relative to glucagon
  pKA: N.R
GCGR with RAMP2 [3]; GCGR + RAMP2, percentage of glucagon response without RAMP co-transfection
  Emax: N.R
GCGR with RAMP2 [3]; HEK-293, GCGR + RAMP2, mean ± S.E., five repeats
  pEC50: N.R
GCGR with RAMP2 [4]
  binding to the GCGR upon RAMP2 co-transfection: failed to bind
GCGR [5]
  Emax: 84 ± 9.4%
GCGR [5]; Table 5, yeast GPA1/Gαi, GCGR + vector, mean ± S.E., five repeats, SEM
  EC50: 20 nM
GCGR [6]
  Emax: 80.1 ± 7.5%
GCGR [6]; Table 4, yeast GPA1/Gαs, GCGR + vector, mean ± S.E., five repeats, SEM
  EC50: 3160 nM
GCGR [1]; Table 3, cAMP, HEK-293, GCGR + vector, mean ± S.E., five repeats, SEM
  EC50: 10 nM
GCGR with RAMP2 [7]; [9]
  pEC50: N.R
GCGR with RAMP2 [7]; [10]
  log τ: N.R
  pKA: N.R
GCGR with RAMP2 [7]; [11]
  Emax: N.R
GCGR [8]; whole cell competition binding
  affinity for the GCGR relative to the native peptide (glucagon): higher affinity
GCGR [8]; whole cells, [125I]glucagon 0.1 nM, 16 h at 4 °C
  binding to the GCGR in competition with glucagon: bound to the GCGR
